Measured values published in patent publication US5792457A, “Antibody recognizing endothelial cell ligand for leukocyte CR3” (priority 1995, dated 1998).

Key:
[1] = test system: neutrophil adherence to human umbilical vein endothelial cells (HUVEC); assay: Adherence of neutrophils to cultured (TNF alpha stimulated) endothelial cells; assay type: cell-based; details: for inhibition of neutrophil adherence / role of RGD in blocking neutrophil adherence (in words): 20-mer peptides, 0.5 mM; for inhibition of neutrophil adherence (in words): peptides 0.5 mM (Example 9); for maximal inhibition of neutrophil attachment: concentration series (FIG. 25B); for neutrophil adherence, peptide plus 9D4: peptide 5 μg/ml + 9D4 10 μg/ml; for neutrophil adherence, peptide plus 12H1: peptide 5 μg/ml + 12H1 10 μl of ascites; for neutrophil adherence, peptide plus IB4: peptide 5 μg/ml + IB4 10 μg/ml; for neutrophil adherence, single agent: peptide 5 μg/ml or antibody alone (IB4 10 μg/ml, 12H1 10 μl of ascites, 9D4 10 μg/ml); for additive reduction of neutrophil adherence, peptide together with IB4: with anti-CD18 mAb IB4 (50 μg/ml)
Protocol: FIG. 17 is a bar graph representation of the inhibition of neutrophil adherence to activated endothelial cells by FHA, Factor X- and FHA- derived peptides. The concentration of inhibiting substances was: peptides 0.5 mM, native FHA 0.3 μM. Values represent the mean±standard deviation of 4 experiments with 5 wells/peptide.
FIG. 18 is a graphical representation of the FHA, FHA- or Factor X-peptide concentration effects on the inhibition of neutrophil adherence to activated endothelial cells. FHA peptide II monomer (Square) and trimer (Diamond), Factor X peptide II (Circle) at 10^-9 μM to 0.5 mM; native FHA at 10^-6 to 3×10^2 μM (triangle). Values represent the mean of 3 experiments with 5 wells/peptide (standard deviations <15%).
FIG. 25 is a graphical representation of the inhibition of neutrophil adherence to activated endothelial cells by FHA and FHA peptides. FIG. 25A: Peptide concentrations were 0.5 mM (FHA 0.2 μM). Values represent mean±standard deviation of four experiments with 5 wells/peptide; FIG. 25B represents the mean±standard deviation of triplicate experiments with 5 wells/peptide. Native FHA (.quadrature.); FHA peptide Ca (.largecircle.).
Human umbilical vein endothelial cells (HUVEC, first passage, Clonetics, San Diego, Calif.) were subcultured at confluence into Terasaki tissue culture wells. After 24 hours, confluent monolayers were used for adherence assays. Monolayers were stimulated with 10 ng/ml TNF alpha (Boehringer Mannheim, Indianapolis, Ind.) at 37° C. for four hours. 30 μl of human neutrophils (10^6 /ml) were labeled with fluorescein by the method of Lo et al. (1991), J. ExP. Med. 173 1493-1500, and preincubated for 15 minutes at 37° C. with 20 μl of peptides (0.5 mM in HAP) or HAP (phosphate buffered saline containing 0.5 mg/ml human serum albumin, 3 mM glucose, and 0.3 U/ml aprotinin) as a control buffer. For some experiments, endothelial cells were pretreated from 10 minutes with Factor X or antibodies against Factor X receptor (EPR-1; Altieri et al. (1990), J. Immunol. 145, 246-253) 12H1 and 9D4 (obtained from Dr. D. Altieri, Scripps Research Institute, LaJolla, Calif.) and then washed. Neutrophils were allowed to adhere to the monolayer for 15 mins. at 37° C. and unbound cells were removed by submersion of the plate in PBS buffer. The number of adherent neutrophils was counted in a 40× microscope field and expressed as a percentage of adherence in control wells with neutrophils treated with HAP buffer alone. The mAb IB4 against CD18 (50 μg/ml; Merck Inc., Rahway, N.J.) served as a positive control.
The ability of FHA peptides and anti-CD18 or anti-Factor X receptor antibodies to interact cooperatively to inhibit neutrophil adherence to endothelial cells was assessed by measuring neutrophil adherence to endothelial cells in the presence of antibody as well as antibody plus peptide. […] Anti-Factor X receptor mAb 12H1 (10 μl of ascites) or 9D4 (10 μg/ml) were added to the endothelial cell monolayers 10 min before the assay. The peptides were added at 5 μg/ml. The results are shown in Table 8 where the numerical values are in % of control binding.
The procedures for determining the neutrophil adherence to cultured endothelial cells and the transendothelial migration of neutrophils were identical with those of Example 9. Control values were the same as those shown in Example 9.

[2] = test system: blood brain barrier permeability (CSF protein); assay: Rabbit model for meningitis: protein in CSF (blood brain barrier permeability); assay type: in vivo, New Zealand white rabbits; details: for Total protein in CSF, 6 hours: 6 hours after inoculation (Example 11, 1 μM peptide; FHA 0.1 μM); for Total protein in CSF, 7 hours: 7 hours after inoculation (Example 11, 1 μM peptide; FHA 0.1 μM); for Protein in CSF: 6 hours after challenge; for protein influx into CSF and generation of lactate (in words): 10 μM peptides (Table 10)
Protocol: The rabbit model was performed according to an established protocol. Specific pathogen free, New Zealand white rabbits (2 kg; Hare Marland, Nutley, N.J.) were anesthetized with valium (2.5 mg/kg, subcutaneously, Hoffman-LaRoche, Nutley, N.J.), ketamine (35 mg/kg, intra-muscularly, Aveco, Fort Dodge, Iowa) and xylazine (5 mg/kg, intramuscularly, Miles Laboratories, Shawnee, Kans.) and a helmet of dental acrylic was affixed to the calvarium. Twenty four hours later, the rabbits were anesthetized with ethyl carbamate (1.75 g/kg; Aldrich Chemical Co., Milwaukee, Wis.) and pentobarbital (15 mg/kg; Abbott Laboratories, Abbott Park, Ill.) and placed in a stereotaxic frame. A spinal needle was introduced into the cisterna magna and 300 μl of CSF was withdrawn. The animals were challenged intracisternally with 10^8 heat killed, unencapsulated pneumococcus strain R6 introduced in 200 μl of saline (time 0). One hour later, animals were treated with peptides dissolved in 1 ml of saline by intravenous injection into the right marginal ear vein. The concentration of FHA was 0.1 μM and that of the FHA Ia, Factor X II, and scrambled FHA II peptides was 10 μM. For the acetyl-FHA II, acetyl/amide-FHA II, dimer of FHA II and trimer of FHA II peptides, the concentration was 10^-3 μM. The concentration of FHA II is given in the results section. Samples of CSF were withdrawn at hourly intervals after pneumococcal inoculation and leukocyte density was measured using a cell counter (Coulter Electronics Inc., Hialeah, Fla.). CSF samples were centrifuged at 10,000×g for 5 minutes and the supernatant was stored at -70° C. until assayed for protein concentration using the bicinchoninic acid method (ECA Kit, Pierce Chemical Co., Rockford, Ill.) and for lactate concentration (Lactate Detection Kit, Sigma, St. Louis, Mo.). Statistically significant differences between treatments were determined by a one way analysis of variance test.
Loss of barrier function of the cerebral capillary endothelium during inflammation is reflected by an influx of serum proteins into the CSF. […] To examine if the peptides were able to ameliorate these measures of cerebral injury, CSF protein and lactate concentrations were measured hourly in peptide-treated and control animals (Table 10).
Mean values for CSF lactate and protein at time 0 were 18.6±5.8 and 0.8±0.2 respectively. Ten control animals received phosphate-buffered saline. The concentration of FHA II intravenously injected one hour after challenge with pneumococci was 10 μM. Values represent mean±standarddeviation of concentrations in CSF at 6 hours after pneumococcal challenge (n≥4 for peptide treated animals; n=4 for FHA). *Statistically significant difference as compared to control at p<0.02 (Mann-Whitney test).
Again, mean values for CSF lactate and protein at time 0 were 18.6±5.8 and 0.8±0.2, respectively. Ten control animals received phosphate-buffered saline. The concentrations of FHA II intravenously injected was 10^-3 μM. Values represent mean±standard deviation of concentrations in CSF at 6 hours after pneumococcal administration (n≥4 per group).
The anti-inflammatory effects of the administered peptides were assessed in the rabbit model for meningitis by the procedures described in Example 10. The animals received 1 ml of 1 uM peptide intravenously. In a slight departure from the protocol described in Example 10, samples of blood were drawn from the left marginal ear vein 30 minutes after the administration of the peptides to determine peripheral leukocyte concentrations.
Values represent mean ±standard deviation of at least four animals per group. ^1 Time after intracisternal inoculation of pneumococci. *Statistically significant difference as compared to control at p<0.02 (Mann-Whitney test).

Substance | Total protein in CSF, 6 hours [2] | Total protein in CSF, 7 hours [2] | inhibition of neutrophil adherence (in words) [1] | Protein in CSF ([2]; peptides 10 μM, FHA 0.1 μM) | protein influx into CSF and generation of lactate (in words) [2] | further results
GTLLLRNDALTENGTVTISA [FHA Cd] | 1.71 ± 0.19 mg/mL | 2.03 ± 0.57 mg/mL | – | – | – | inhibition of neutrophil adherence [1]: < 15%
AADPHQGVLAQGDIIMDAKG [FHA Cc] | 1.36 ± 0.16 mg/mL | 1.90 ± 0.22 mg/mL | – | – | – | role of RGD in blocking neutrophil adherence (in words) [1]: activity was detectable above background but was not statistically different from buffer alone
RADPHQGVLAQGDIIMDAKG [FHA Cb] | 1.91 ± 0.24 mg/mL | 2.28 ± 0.28 mg/mL | – | – | – | role of RGD in blocking neutrophil adherence (in words) [1]: activity was decreased by half
DEETVK [scrambled FHA II, reference compound] | – | – | did not interfere with neutrophil binding | 1.9 ± 0.3 mg/ml CSF | – | –
RGDPHQGVLAQGDIIMDAKG [FHA Ca] | 1.18 ± 0.39 mg/mL | 1.69 ± 0.41 mg/mL | – | – | – | inhibition of neutrophil adherence [1]: 47±7%; maximal inhibition of neutrophil attachment [1]: ~ 50%; influx of serum protein into CSF (in words) ([2]; 1 μM, entire observation period): reduced the influx of serum protein significantly during the entire observation period
LGYQAK (UniProt P12255 1979-1984, looked up, fragment) [FHA Ia] | – | – | significantly more active than the Factor X peptide I | 1.8 ± 0.4 mg/ml CSF | no significant reduction | neutrophil adherence, peptide plus 9D4 [1]: 63 ± 17 % of control binding; neutrophil adherence, peptide plus 12H1 [1]: 64 ± 12 % of control binding; neutrophil adherence, peptide plus IB4 [1]: 20 ± 7 % of control binding; neutrophil adherence, single agent [1]: 63 ± 12 % of control binding; additive reduction of neutrophil adherence, peptide together with IB4 [1]: > 80±10%
GYDTKQEDG [Factor X II] | – | – | – | 1.6 ± 0.7 mg/ml CSF | no significant reduction | –
ETKEVDG [FHA II] | – | – | – | 1.4 ± 0.6 mg/ml CSF | significantly reduced protein influx into the CSF and generation of lactate | neutrophil adherence, peptide plus 9D4 [1]: 45 ± 9 % of control binding; neutrophil adherence, peptide plus 12H1 [1]: 67 ± 13 % of control binding; neutrophil adherence, peptide plus IB4 [1]: 11 ± 6 % of control binding; neutrophil adherence, single agent [1]: 40 ± 23 % of control binding; additive reduction of neutrophil adherence, peptide together with IB4 [1]: > 80±10%; protein and lactate in CSF (in words) ([2]; 10^-3 μM): ineffective at this dose; Protein in CSF ([2]; 10^-3 μM): 2.45 ± 0.22 mg/ml CSF
native FHA: Filamentous hemagglutinin, 220kD surface associated protein of Bordetella pertussis (List Biologicals) | 1.70 ± 0.33 mg/mL | 1.86 ± 0.76 mg/mL | – | 1.3 ± 0.3 mg/ml CSF | significantly protective for protein influx and lactate generation | concentration at which loss of activity (≤20% inhibition) occurred [1]: 10^-3 μM; maximal inhibition of neutrophil attachment [1]: ~ 50%; reduction of neutrophil binding to HUVEC ([1]; native FHA 25 μg/ml = 0.3 μM): 51±8%; inhibition of adherence of neutrophils to endothelial cells ([1]; native FHA 50 ug/ml, 0.2 uM): 51±7%
Ac-ETKEVDG-NH2 [Acetyl/Amide-FHA II] | – | – | significantly enhanced the ability of peptide FHA II to block neutrophil adherence to endothelia | 1.2 ± 0.6 mg/ml CSF | significantly reduced protein influx into the CSF and generation of lactate | –
